In patent US4990499A, “Anti-herpes simplex virus activity of 5-alkoxymethyl-2'-deoxycytidimes and their 5-monophosphates” (priority 1989, dated 1991):

Experiments:
[1] = tested on: Deoxynucleoside Triphosphate (dNTP) Pools in Vero Cells Infected with Herpes Simplex Virus Type 1; assay: Deoxynucleoside triphosphate (dNTP) pools in HSV-1 infected Vero cells; type: cell-based; settings: Table 10, HSV-infected
Protocol: Example 9 was repeated, except that the Vero cells subjected to the treatment had all been infected with HSV-1 KOS strain prior to the treatment.
^a Cells were infected with 10 PFU/cell of HSV1 KOS strain for one
hour. Treatments were given for seven hours.
^a Cells were infected with 10 PFU/cell of HSV1, KOS strain after
^b H4 dUrd in MEM was added immediately after adsorption and
^c H4 dUrd in MEM was added immediately after adsorption and
(§1) Vero cells and HSV-infected Vero cells were treated with dGUO and dGUO and H4 dUrd. The cells were then assayed for the presence of deoxynucleoside triphosphates. Untreated Vero cells were also assayed for the presence of deoxynucleoside triphophate to provide a control.
^c Cells were infected with 10 PFU/cell of HSV1 strain KOS for one

[2] = tested on: Herpes simplex virus type 1 (HSV-1); assay: Antiviral activity against HSV-1, viral plaque reduction (ED50); type: cell-based; settings: FIG. 13; HSV-1 KOS and 76, Vero, 20 PFU
[3] = tested on: Deoxynucleoside Triphosphate (dNTP) Pools in Uninfected Vero Cells; assay: Deoxynucleoside triphosphate (dNTP) pools in uninfected (mock-infected) Vero cells; type: cell-based; settings: Table 10, uninfected
Protocol: Vero cells were treated with MMdCyd, H4 dUrd and MMdCyd+H4 dUrd. The cells were then assayed for the presence of deoxynucleoside triphosphates. Untreated Vero cells were also assayed for the presence of deoxynucleoside triphosphates, to provide a control.
^a Cells were mock infected for one hour. Different treatments were
^b Values are means of at least two assays of triplicate cell
as §1
Vero cells were treated with N-methyl-MMdCyd. The cells were then assayed for dNTP pools.

[4] = tested on: Herpes simplex virus type 1 (HSV-1); assay: Antiviral activity against HSV-1, viral plaque reduction (ED50); type: cell-based; settings: FIG. 13; deoxyguanosine with MMdCyd
Protocol: Infected cells were treated with different concentrations of MMdCyd and the concentration required to reduce viral plaque formation by 50%, i.e. ED50, was determined.
^a ED50 : Concentration required to reduce viral plaque formatio
Vero cells were infected with the KOS strain of HSV-1. The compound of compounds indicated in Table 2, below, and are shown graphically in FIGS. 1, (H4 dUrd) and 2 (H4 Urd).
^a Antiviral assays were carried out using Vero cells. All compounds
were added immediately after virus infection.
The antiviral activity of MMdCyd in the presence of H4 dUrd was determined against several strains of HSV-1 and HSV-2.
Vero cells were infected with HSV-1, strain 76 and treated with MMdCyd at different times post virus infection.
The antiviral activity, ^a cyctotoxicity* and antiviral indices of MMdCyd in the presence of H4 dUrd, dGuo and H4 dUrd+dGuo were determined.
^a Antiviral assays were carried out using Vero cells. Compounds were
added immediately after virus infection. Virus HSV1, strains KOS and 76;
KOS, virus input = 50 PFU

[5] = Survival and viability of Vero cells; settings: monkey, vero cells
Protocol: (§2) The survival and viability of Vero cells grown in the presence of 2'-deoxyguanosine, H4 dUrd and deoxyguanosine+H4 dUrd was determined.

Vero cells = assay: Survival and viability of Vero cells; settings: up to 250 μM, rapidly dividing Vero cells
Protocol: as §2

Compound: Nc1nc2c(ncn2[C@H]2C[C@H](O)[C@@H](CO)O2)c(=O)[nH]1 [dGuo, 2'-deoxyguanosine]
- dATP pool ([1]; dGUO 25 μM): 12 .rho.moles/10^6 cells
- dCTP pool ([1]; dGUO 25 μM): 23 .rho.moles/10^6 cells
- dGTP pool ([1]; dGUO 25 μM): 290 .rho.moles/10^6 cells
- dTTP pool ([1]; dGUO 25 μM): 110 .rho.moles/10^6 cells
- dATP pool ([1]; dGUO 50 μM): 12 .rho.moles/10^6 cells
- dCTP pool ([1]; dGUO 50 μM): 33 .rho.moles/10^6 cells
- dGTP pool ([1]; dGUO 50 μM): 373 .rho.moles/10^6 cells
- dTTP pool ([1]; dGUO 50 μM): 118 .rho.moles/10^6 cells
- dATP pool ([1]; dGUO 100 μM): 12 .rho.moles/10^6 cells
- dCTP pool ([1]; dGUO 100 μM): 64 .rho.moles/10^6 cells
- dGTP pool ([1]; dGUO 100 μM): 600 .rho.moles/10^6 cells
- dTTP pool ([1]; dGUO 100 μM): 214 .rho.moles/10^6 cells
- dATP pool ([1]; dGUO 250 μM): 14 .rho.moles/10^6 cells
- dCTP pool ([1]; dGUO 250 μM): 78 .rho.moles/10^6 cells
- dGTP pool ([1]; dGUO 250 μM): 558 .rho.moles/10^6 cells
- dTTP pool ([1]; dGUO 250 μM): 233 .rho.moles/10^6 cells
- dATP pool ([1]; dGUO 500 μM): 25 .rho.moles/10^6 cells
- dCTP pool ([1]; dGUO 500 μM): 60 .rho.moles/10^6 cells
- dGTP pool ([1]; dGUO 500 μM): 738 .rho.moles/10^6 cells
- dTTP pool ([1]; dGUO 500 μM): 247 .rho.moles/10^6 cells
- effect on antiviral activity of MMdCyd [2]: markedly potentiated
- dATP pool ([3]; dGUO 25 μM): 18 .rho.moles/10^6 cells
- dCTP pool ([3]; dGUO 25 μM): 13 .rho.moles/10^6 cells
- dGTP pool ([3]; dGUO 25 μM): 42 .rho.moles/10^6 cells
- dTTP pool ([3]; dGUO 25 μM): 17 .rho.moles/10^6 cells
- dATP pool ([3]; dGUO 50 μM): 19 .rho.moles/10^6 cells
- dCTP pool ([3]; dGUO 50 μM): 9 .rho.moles/10^6 cells
- dGTP pool ([3]; dGUO 50 μM): 88 .rho.moles/10^6 cells
- dTTP pool ([3]; dGUO 50 μM): 10 .rho.moles/10^6 cells
- dATP pool ([3]; dGUO 100 μM): 19 .rho.moles/10^6 cells
- dCTP pool ([3]; dGUO 100 μM): 11 .rho.moles/10^6 cells
- dGTP pool ([3]; dGUO 100 μM): 76 .rho.moles/10^6 cells
- dTTP pool ([3]; dGUO 100 μM): 13 .rho.moles/10^6 cells
- dATP pool ([3]; dGUO 250 μM): 29 .rho.moles/10^6 cells
- dCTP pool ([3]; dGUO 250 μM): 8 .rho.moles/10^6 cells
- dGTP pool ([3]; dGUO 250 μM): 102 .rho.moles/10^6 cells
- dTTP pool ([3]; dGUO 250 μM): 13 .rho.moles/10^6 cells
- dATP pool ([3]; dGUO 500 μM): 19 .rho.moles/10^6 cells
- dCTP pool ([3]; dGUO 500 μM): 7 .rho.moles/10^6 cells
- dGTP pool ([3]; dGUO 500 μM): 146 .rho.moles/10^6 cells
- dTTP pool ([3]; dGUO 500 μM): 6 .rho.moles/10^6 cells
- concentration giving maximal increase in antiherpes activity of MMdCyd [4]: 100 µM
- viability at 25 µM [5]: 100%
- viability at 50 µM [5]: 100%
- viability at 100 µM [5]: 100%
- viability at 250 µM [5]: 100%
- viability at 500 µM [5]: 88%
- viability at 1000 µM [5]: 63%
- cytotoxicity (Vero cells): devoid of cytotoxicity
